# “Also recorded” adds a separate entry of the source.
# How the values were obtained:
# [1] = test system: rats with experimental colonic hypersensitivity (butyrate), referred lumbar hypersensitivity; test: colonic hypersensitivity model (intracolonic sodium butyrate): referred lumbar hypersensitivity, von Frey mechanical threshold; format: in vivo, Sprague Dawley rats; settings: 10 μg IV, up to 120 minutes postinjection, data not shown
# [2] = test system: evoked release of calcitonin gene-related peptide from the rat isolated spinal cord; settings: rat isolated spinal cord (Arvieu et al.); cited from earlier work
# [3] = test system: acetic acid-induced abdominal writhing in mice; settings: mice (Ghelardini et al.; Jain et al.); cited from earlier work
# [4] = test system: thermal hypersensitivity induced by intraplantar injection of carrageenan; settings: injected systemically at similar doses used in the present study (Bingham et al.); cited from earlier work
# [5] = test system: rats with experimental colonic hypersensitivity (butyrate), referred lumbar hypersensitivity; test: colonic hypersensitivity model (intracolonic sodium butyrate): referred lumbar hypersensitivity, von Frey mechanical threshold; format: in vivo, Sprague Dawley rats; settings: for behavior of rats previously injected with intracolonic vehicle: control rats
# Description: (§1) Adult male Sprague Dawley rats (Harlan, Indianapolis, Ind.), weighing 150-200 g, were maintained in a climate-controlled room with ad lib food and water on a 12 hour/12 hour light/dark cycle (lights on at 07:00 hours). All procedures followed the policies of the International Association for the Study of Pain and the NIH guidelines for the handling and use of laboratory animals. Studies were approved by the University of Arizona IACUC.
# (§2) Dibutyltin dichloride (DBTC) was obtained from Sigma-Aldrich (Milwaukee, Wis.) and dissolved in 100% ethanol to a concentration of 8 mg/kg (Sparmann et al., Gastroenterology. 112:1664-1672 (1997))). Sumatriptan succinate was obtained from Toronto Research Chemicals (ON, Canada) and dissolved in saline to 1, 3, and 10 μg for RVM microinjections and 100, 200, and 300 μg/kg for systemic injections (Kayser et al., Br J Pharmacol. 137:1287-1297 (2002)). The 5HT1B antagonist isamoltane and the 5HT1D antagonist BRL15722 were obtained from Tocris (Elllisville, Mo.). Isamoltane was dissolved in saline to a concentration of 3 μg for RVM microinjection and to a concentration of 4 mg/kg (Ottani et al., Eur J Pharmacol. 497:181-186 (2004)) for system application. BRL15722 was dissolved in 10% DMSO to a concentration of 3 μg for RVM microinjection and to a concentration of 0.3 mg/kg (Ottani et al., Eur J Pharmacol. 497:181-186 (2004)) for systemic application.
# (§3) For the experiments involving microinjection of drugs into the RVM, rats underwent surgeries to implant RVM cannulae. After five days of recovery, rats received either intravenous injection of DBTC to induce pancreatitis, or intracolonic injection of sodium butyrate to induce colonic hypersensitivity. Animals were monitored for development of visceral hypersensitivity on the subsequent days. On day six after either induction of pancreatitis or colonic hypersensitivity, animals underwent baseline behavioral measurements. Sumatriptan was microinjected into the RVM at different doses (separate groups of rats for each dose) and animals were monitored behaviorally for two h after sumatriptan application in the RVM. For experiments investigating the effects of serotonin antagonists, the drugs were microinjected concurrently with injection of sumatriptan and animals were monitored for the subsequent two h. Separate groups of animals were microinjected with the antagonists alone to control for possible effects of the drugs by themselves.
# (§4) For the experiments involving systemic drug administration, rats received intravenous injection of DBTC to induce pancreatitis or intracolonic injection of sodium butyrate to induce colonic hypersensitivity. On day six after either induction of pancreatitis of colonic hypersensitivity, animals underwent baseline behavioral measurements. Sumatriptan was injected intraperitoneally at different doses (separate groups of rats for each dose) and the animals were monitored behaviorally every 20 min for two h after injection. For experiments investigating the effects of serotonin antagonists, the drugs were injected intraperitoneally immediately following the injection of sumatriptan (separate groups for each respective antagonist). Separate groups of animals were injected with the antagonists alone. Additionally, separate groups of animals were injected with sumatriptan systemically and microinjected with the antagonists in the RVM to determine if the RVM is a site of action for systemically applied sumatriptan. The microinjection of antagonists into the RVM was done immediately following the systemic injection of sumatriptan. All animals were tested for behavioral signs of hypersensitivity every 20 min for two h after the end of the injections.
# Colonic hypersensitivity was induced by enemas of a sodium butyrate solution ([…]) twice daily for 3 days (Bourdu et al., Gastroenterology. 128:1996-2008 (2005)). […]
# [6] = test system: rats with experimental pancreatitis (DBTC), referred abdominal hypersensitivity; test: experimental pancreatitis model (IV DBTC): referred abdominal hypersensitivity, withdrawals to von Frey filament; format: in vivo, Sprague Dawley rats
# Description: as §1, §2
# as §3, with “Sumatriptan was microinjected into the RVM at different doses (separate groups of rats for each dose) and animals were monitored behaviorally for two h after sumatriptan application in the RVM.” left out
# as §4, with “Sumatriptan was injected intraperitoneally at different doses (separate groups of rats for each dose) and the animals were monitored behaviorally every 20 min for two h after injection. For experiments investigating the effects of serotonin antagonists, the drugs were injected intraperitoneally immediately following the injection of sumatriptan (separate groups for each respective antagonist).” left out
# Pancreatitis was produced by a tail vein injection of dibutyltin dichloride (DBTC, Aldrich, Milwaukee, Wis., 0.25 cc) dissolved in 100% ethanol at a dose of 8 mg/kg under isofluorane anesthesia (2-3 liters/min, 4.0%/vol until anesthetized, then 2.5%/vol throughout the procedure; Vera-Portocarrero et al., Gastroenterology. 130:2155-2164 (2006)). Control animals were injected with the vehicle solution only (100% ethanol, 0.25 mL).
# Referred abdominal hypersensitivity in the pancreatitis model was quantified by measuring the number of withdrawal events evoked by application of a calibrated von Frey filament (determined by either abdominal withdrawal, licking of the abdominal area, or whole body withdrawal). Rats were placed inside Plexiglas boxes on an elevated fine fiberglass screen mesh and acclimated for 30 minutes before testing. […]
# [7] = test system: capsaicin-induced hyperemia in the sciatic nerve; settings: Zochodne and Ho; cited from earlier work
# β-2 adrenergic receptors = β-2 adrenergic receptors (Homo sapiens, UniProt P07550); settings: reported; cited from earlier work
# [8] = RVM microinjection, butyrate rats
# β-2 adrenergic receptors, sequence (P07550 whole entry): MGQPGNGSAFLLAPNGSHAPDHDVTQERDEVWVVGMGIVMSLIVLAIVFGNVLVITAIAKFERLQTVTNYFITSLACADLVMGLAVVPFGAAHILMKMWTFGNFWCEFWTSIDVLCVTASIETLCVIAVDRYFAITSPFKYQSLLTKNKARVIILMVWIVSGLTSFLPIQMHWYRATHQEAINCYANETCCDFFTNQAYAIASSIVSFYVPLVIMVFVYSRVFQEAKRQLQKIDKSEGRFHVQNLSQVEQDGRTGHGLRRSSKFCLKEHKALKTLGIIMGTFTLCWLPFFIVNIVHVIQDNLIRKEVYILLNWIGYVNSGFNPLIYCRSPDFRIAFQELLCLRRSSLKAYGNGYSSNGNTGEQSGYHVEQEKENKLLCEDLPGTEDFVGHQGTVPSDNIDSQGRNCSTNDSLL
structure (smiles),measurement,setting,value
CNS(=O)(=O)Cc1ccc2[nH]cc(CCN(C)C)c2c1 [sumatriptan],reduced lumbar mechanical threshold after IV sumatriptan,[1],did not reverse the reduction in threshold
same,evoked release of calcitonin gene-related peptide,[2],inhibits
same,antinociceptive efficacy in acetic acid-induced abdominal writhing,[3],has antinociceptive efficacy
same,thermal hypersensitivity induced by intraplantar carrageenan,[4],attenuated
same,mechanical threshold of rats injected with sodium butyrate,"[5]; IP sumatriptan 100, 200, 300 μg/kg",restored tactile thresholds of butyrate-treated rats in a dose dependent manner; also recorded: increased the mechanical threshold of rats injected with sodium butyrate in a time- and dose-dependent manner
same,behavior of rats previously injected with intracolonic vehicle,[5]; IP sumatriptan,did not modify the behavior
same,time for which systemic sumatriptan was active postinjection,"[5]; IP, butyrate rats",60 min
same,time of peak effect,"[5]; IP, butyrate rats",40 min
same,time point by which the effect dissipated,"[5]; IP, butyrate rats",up to 100 minute
same,time to reversal of reduced mechanical threshold after administration,"[5]; IP, butyrate rats",≤ 20 min
same,A50 (and 95% CI) dose for IP sumatriptan,"[5]; IP, butyrate rats, lumbar mechanical threshold",232.6 (182.2-322.8) μg/kg
same,lumbar hypersensitivity / lumbar dermatome mechanical threshold after RVM administration,"[5]; RVM microinjection 1, 3, 10 μg, butyrate rats",restored tactile thresholds of butyrate-treated rats in a dose dependent manner; also recorded: time- and dose-dependent attenuation of lumbar hypersensitivity
same,time by which the effects of RVM sumatriptan dissipated,[5]; [8],≤ 100 min
same,time for which the effects of RVM sumatriptan endured,[5]; [8],approximately 60 minutes
same,time of peak effect,[5]; [8],40 min
same,time to reversal of reduced mechanical threshold after administration,[5]; [8],≤ 20 min
same,behavior of rats previously injected with intracolonic vehicle,[5]; RVM microinjection,did not modify the behavior
same,A50 (and 95% CI) dose for RVM sumatriptan,"[5]; microinjection into the RVM, butyrate rats, lumbar mechanical threshold",3.2 (2.0-12.5) μg
same,"mechanical threshold, single RVM dose","[5]; sumatriptan 10 μg into the RVM, butyrate rats, v. RVM saline",increased the mechanical threshold
same,"mechanical threshold, single dose of systemic sumatriptan","[5]; sumatriptan 300 μg/kg IP, butyrate rats, v. saline",increased the mechanical threshold
same,frequency of abdominal withdrawals after IV sumatriptan,"[6]; 10 μg IV, DBTC rats, up to 120 minutes postinjection, data not shown",not altered
same,frequency of withdrawals in DBTC-injected rats,"[6]; IP sumatriptan 100, 200, 300 μg/kg, day 6 after DBTC",reduced abdominal withdrawals in pancreatic rats in a dose-dependent manner; also recorded: reduced the frequency of withdrawals in DBTC-injected rats in a time- and dose-dependent manner
same,responses to abdominal stimulation in vehicle-injected control rats,"[6]; IP sumatriptan, rats without pancreatitis",did not alter responses to abdominal stimulation
same,time for which systemic sumatriptan was active postinjection,"[6]; IP, DBTC rats",up to 100 minutes
same,time of peak effect,"[6]; IP, DBTC rats",40 min
same,time point at which the effect dissipated,"[6]; IP, DBTC rats",120 min
same,time to attenuation of withdrawals after administration,"[6]; IP, DBTC rats",≤ 20 min
same,A50 dose (and 95% confidence interval) for IP sumatriptan,"[6]; IP, day 6 after IV DBTC, frequency of abdominal withdrawals, A50 = dose producing a 50% response",172.4 (124.5-386.7) μg/kg
same,frequency of withdrawals after RVM administration,"[6]; RVM microinjection 1, 3, 10 μg, DBTC rats",reduced the number of withdrawals in a dose-dependent manner; also recorded: attenuated the increased frequency of withdrawals
same,time by which the effects of RVM sumatriptan dissipated,"[6]; RVM microinjection, DBTC rats",≤ 100 min
same,time for which the effects of RVM sumatriptan endured,"[6]; RVM microinjection, DBTC rats",approximately 60 minutes
same,time of peak effect,"[6]; RVM microinjection, DBTC rats",40 min
same,time to attenuation of withdrawals after administration,"[6]; RVM microinjection, DBTC rats",≤ 20 min
same,responses to abdominal stimulation in vehicle-injected rats,"[6]; RVM microinjection, rats without pancreatitis",did not alter responses to abdominal stimulation
same,A50 dose (and 95% CI) for RVM sumatriptan,"[6]; microinjection into the RVM, DBTC rats, frequency of withdrawals",4.3 (3.1-16.2) μg
same,"frequency of withdrawals, single RVM dose","[6]; sumatriptan 10 μg into the RVM, DBTC rats, v. RVM saline",attenuated the frequency of withdrawals; also recorded: reduced the frequency of withdrawals
same,"frequency of withdrawals, single dose of systemic sumatriptan","[6]; sumatriptan 300 μg/kg IP, DBTC rats, v. saline",attenuated the frequency of withdrawals; also recorded: reduced the frequency of withdrawals
same,capsaicin-induced hyperemia in the sciatic nerve,[7],inhibits capsaicin-induced hyperemia
CC(C)NCC(O)COc1ccccc1-n1cccc1 (stereo not drawn) [isamoltane],activity at β-2 adrenergic receptors,β-2 adrenergic receptors,reported to have activity at β-2 adrenergic receptors
same,effect of concurrent RVM antagonist on the effect of RVM sumatriptan,"[5]; sumatriptan 10 μg RVM, antagonist 3 μg RVM, butyrate rats",blocked the effects of sumatriptan; also recorded: blocked the effect of RVM sumatriptan
same,effect of RVM antagonist on the effect of systemic sumatriptan,"[5]; sumatriptan 300 μg/kg IP, antagonist 3 μg RVM, butyrate rats",failed to antagonize the effects of systemic sumatriptan; also recorded: did not modify the effect of systemic sumatriptan
same,effect of concurrent systemic (IP) antagonist on the effect of systemic sumatriptan,"[5]; sumatriptan 300 μg/kg IP, isamoltane 4 mg/kg IP or BRL15722 0.3 mg/kg IP, butyrate rats",reduced the effects of sumatriptan; also recorded: blocked the effect of systemic sumatriptan
same,effect of concurrent RVM antagonist on the effect of RVM sumatriptan,"[6]; sumatriptan 10 μg RVM, antagonist 3 μg RVM, DBTC rats",blocked the effect of sumatriptan
same,effect of RVM antagonist on the effect of systemic sumatriptan,"[6]; sumatriptan 300 μg/kg IP, antagonist 3 μg RVM, DBTC rats",failed to antagonize the effects of systemic sumatriptan; also recorded: did not modify the effect of systemic sumatriptan
same,effect of concurrent systemic (IP) antagonist on the effect of systemic sumatriptan,"[6]; sumatriptan 300 μg/kg IP, isamoltane 4 mg/kg IP or BRL15722 0.3 mg/kg IP, DBTC rats",reduced the effects of sumatriptan; also recorded: blocked the effects of sumatriptan
